Key:
Type in all cases: cell-based
A. baumannii HUMC1 = settings: CLSI, cation-adjusted MHB, 18 h at 37 °C, three technical replicates
Protocol: (§1) VIII. Antimicrobial testing
(§2) Table S2. Minimum inhibitory concentrations (MICs) determined against panel of previously characterized colistin-resistant A. baumannii clinical isolates5
(§3) Strain Relacidine A (3a) Relacidine B (4a) Relacidamide (5) Colistin […]
(§4) aMIC values given in µg/ml.
(§5) All minimum inhibitory concentrations were determined according to Clinical and Standards Laboratory Institute (CLSI) guidelines. Blood agar plates were inoculated from glycerol stocks of the different A. baumannii strains used and then incubated for 16 h at 37 °C . Individually grown colonies were subsequently used to inoculate 5 mL aliquots of TSB that were then incubated at 37 °C. In parallel, the lipopeptide antibiotics DMSO stocks to be assessed were serially diluted with cation-adjusted MHB in polypropylene 96-well plates (50 µL in each well). Colistin sulfate stocks were dissolved in water before being diluted with cation-adjusted MHB. The A. baumannii inoculated TSB aliquots were incubated until an OD600 of around 0.5 was reached. The bacterial suspensions were then diluted with cation-adjusted MHB (2 x 10^5 CFU mL-1) and added to the microplates containing the test compounds (50 µL to each well). The well-plates were sealed with an adhesive membrane and after 18 h of incubation at 37 °C visually inspected for bacterial growth. MIC values reported are based on three technical replicates and defined as the lowest concentration of the compound that prevented visible

A. baumannii NCTC 13304 = settings: CLSI, cation-adjusted MHB, 18 h at 37 °C, three technical replicates
Protocol: as §1, §2, §3, §4, §5

A. baumannii LAC-4 = settings: CLSI, cation-adjusted MHB, 18 h at 37 °C, three technical replicates
Protocol: as §1, §2, §3, §4, §5

A. baumannii BV94 = settings: colistin-resistant clinical isolate; CLSI, cation-adjusted MHB, 18 h at 37 °C, three technical replicates
Protocol: as §1, §2, §3, §4, §5

A. baumannii ATCC 17978 = settings: CLSI, cation-adjusted MHB, 18 h at 37 °C, three technical replicates
Protocol: as §1, §2, §3, §4, §5

A. baumannii BV95 = settings: CLSI, cation-adjusted MHB, 18 h at 37 °C, three technical replicates
Protocol: as §1, §2, §3, §4, §5

A. baumannii NCTC 13420 = settings: CLSI, cation-adjusted MHB, 18 h at 37 °C, three technical replicates
Protocol: as §1, §2, §3, §4, §5

A. baumannii BV172 = settings: CLSI, cation-adjusted MHB, 18 h at 37 °C, three technical replicates
Protocol: as §1, §2, §3, §4, §5

A. baumannii BV173 = settings: CLSI, cation-adjusted MHB, 18 h at 37 °C, three technical replicates
Protocol: as §1, §2, §3, §4, §5

sheep red blood cells = experiment: Hemolytic assay; settings: 128 μg/mL, 1 h at 37 °C, sheep red blood cells in PBS with 0.002% Tween20, read-out 415 nm, relative to 0.1% Triton X-100, triplicate
Protocol: Figure S2. Hemolytic activity of compounds 3a-5 at 128 µg/mL and 1 h incubation against sheep red […]
under the same conditions.
Experiments were performed in triplicate and Triton X-100 used as a positive control. Red blood cells from defibrinated sheep blood obtained from Thermo Fisher were centrifuged (400 g for 15 min at 4°C) and washed with Phosphate-Buffered Saline (PBS) containing 0.002% Tween20 (buffer) five times. Then, the red blood cells were normalized to obtain a positive control read-out between 2.5 and 3.0 at 415 nm to stay within the linear range with the maximum sensitivity. A serial dilution of the compounds (128 – 1 µg/mL, 75 µL) was prepared in a 96-well polypropylene plate. The outer border of the plate was filled with 75 µL buffer. Each plate contained a positive control (0.1% Triton-X final concentration, 75 µL) and a negative control (buffer, 75 µL) in triplicate. The normalized blood cells (75 µL) were added and the plates were incubated at 37 °C for 1 h while shaking at 500 rpm. A flat - bottom polystyrene plate with 100 µL buffer in each well was prepared. […] The values obtained from a read-out at 415 nm were corrected for background (negative control) and transformed to a percentage relative to the positive […]

colistin [reference compound] was tested, and the “MIC A. baumannii HUMC1” value (A. baumannii HUMC1) was 1 µg/mL, the “MIC A. baumannii NCTC 13304” value (A. baumannii NCTC 13304) was 1 µg/mL and the “MIC A. baumannii LAC-4” value (A. baumannii LAC-4) was 0.5 µg/mL. The “MIC A. baumannii BV94” value (A. baumannii BV94) was > 64 µg/mL, the “MIC A. baumannii ATCC 17978” value (A. baumannii ATCC 17978) was 1 µg/mL and the “MIC A. baumannii BV95” value (A. baumannii BV95) was 32 µg/mL. The “MIC A. baumannii NCTC 13420” value (A. baumannii NCTC 13420) was 0.5 µg/mL, the “MIC A. baumannii BV172” value (A. baumannii BV172) was > 64 µg/mL and the “MIC A. baumannii BV173” value (A. baumannii BV173) was 16 µg/mL. The hemolysis (sheep red blood cells) was < 0.1%.
